From US20250145665A1, “MACROCYCLIC PEPTIDES USEFUL AS MODULATORS OF TNF ALPHA” (Bristol-Myers Squibb Company, priority 2023, published 2025)
Read-outs that look alike come from different tables or passages of the source. Starred links: 1 amine or outer side, 2 acyl side, 3 side chain; linkers in the order of their positions; H or OH if unused. Positions of bridges follow the written chain, without caps; N, C: chain ends. Non-standard residues stand in square brackets, D forms with d. Residues, ends and D or L forms follow the SMILES beside them. ξ: configuration not given here. *: point of attachment. Bip(4'-NHCO-C6H4-3-CH2COOH) = N[C@@H](Cc1ccc(-c2ccc(NC(=O)c3cccc(CC(=O)O)c3)cc2)cc1)C(=O)O; X56 = O=C(O)COc1cccc(NC(=O)c2ccc(-c3ccc(C[C@H](N[*:1])C(=O)[*:2])cc3)cc2)c1; Bip(4'-NH) = O=C([C@H](Cc1ccc(-c2ccc(N[*:3])cc2)cc1)N[*:1])[*:2]; Indazole3carbonyl(1-CH2COOH) = O=C(O)Cn1nc(C(=O)*)c2ccccc21; Bip(4'-COOH) = N[C@@H](Cc1ccc(-c2ccc(C(=O)O)cc2)cc1)C(=O)O; Bip(4'-NHAc) = CC(=O)Nc1ccc(-c2ccc(C[C@H](N)C(=O)O)cc2)cc1; X18 = N=C(NCCC[C@@H](N[*:1])C(=O)[*:2])NCCc1ccc(O)cc1; X55 = N=C(NCCC[C@@H](N[*:1])C(=O)[*:2])NCCc1cccnc1; Ala(morpholin-4-yl) = N[C@@H](CN1CCOCC1)C(=O)O; Phe(3-CONH2) = NC(=O)c1cccc(C[C@H](N)C(=O)O)c1; X59 = O=C([C@H](Cc1c(F)cc(F)cc1F)N[*:1])[*:2]; X12 = N=C(NCCO)NCCC[C@@H](N[*:1])C(=O)[*:2]; Bip = N[C@@H](Cc1ccc(-c2ccccc2)cc1)C(=O)O; Cha = N[C@@H](CC1CCCCC1)C(=O)O; Tle = CC(C)(C)[C@H](N)C(=O)O; ξP = O=C(O)C1CCCN1; Sar = CNCC(=O)O

Target: TNFα (Homo sapiens, UniProt P01375)
Assay: TNF-Induced HEK-Blue Assay
Assay type: cell-based
[1] = HEK-Blue-CD40L cells, NF-kB-driven secreted alkaline phosphatase reporter, TNFα 0.5 ng/ml, 18 h, read-out: TNF induced HEK-Blue assay IC50 value

TNFα, sequence (P01375 77-233 limits assumed): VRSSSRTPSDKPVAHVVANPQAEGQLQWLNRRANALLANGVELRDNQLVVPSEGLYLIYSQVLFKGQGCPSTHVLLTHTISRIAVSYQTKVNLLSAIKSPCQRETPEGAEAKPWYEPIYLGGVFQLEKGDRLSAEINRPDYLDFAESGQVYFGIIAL

| Structure (SMILES) | IC50 [1] | IC50 |
| --- | --- | --- |
| CC(C)C[C@@H]1NC(=O)[C@H](CCCNC(=N)N)NC(=O)[C@H](C(C)C)NC(=O)[C@@H]2CCCN2C(=O)[C@H](C(C)C)NC(=O)[C@@H](CCCNC(=N)NCCc2cccnc2)NC(=O)[C@H](CC(=O)O)NC(=O)[C@@H]2CCCN2C(=O)CN(C)C(=O)[C@H](Cc2ccc(-c3ccc(NC(=O)c4nn(CC(=O)O)c5ccccc45)cc3)cc2)NC(=O)[C@H](Cc2ccc(-c3ccccc3)cc2)NC(=O)[C@H](CN2CCOCC2)NC(=O)CSC[C@@H](C(=O)NCC(N)=O)NC1=O [Example 434] ({CH2CO}-[Ala(morpholin-4-yl)][Bip][Bip(4'-NH)](Indazole3carbonyl(1-CH2COOH))[Sar]PD[X55]VPVRLCG-NH2; thioether N-13) |  | 50 to 200 nM |
| CC(C)C[C@@H]1NC(=O)[C@H](CCCNC(=N)N)NC(=O)[C@H](C(C)C)NC(=O)[C@@H]2CCCN2C(=O)[C@H](C(C)C)NC(=O)[C@@H](CCCNC(=N)NCCO)NC(=O)[C@H](CC(=O)O)NC(=O)[C@@H]2CCCN2C(=O)CN(C)C(=O)[C@H](Cc2ccc(-c3ccc(NC(=O)c4nn(CC(=O)O)c5ccccc45)cc3)cc2)NC(=O)[C@H](Cc2ccc(-c3ccccc3)cc2)NC(=O)[C@H](CN2CCOCC2)NC(=O)CSC[C@@H](C(=O)NCC(N)=O)NC1=O [Example 387] ({CH2CO}-[Ala(morpholin-4-yl)][Bip][Bip(4'-NH)](Indazole3carbonyl(1-CH2COOH))[Sar]PD[X12]VPVRLCG-NH2; thioether N-13) |  | < 50 nM |
| CC(=O)Nc1ccc(-c2ccc(C[C@@H]3NC(=O)[C@H](Cc4ccc(-c5ccc(C(=O)O)cc5)cc4)NC(=O)[C@H](CC4CCCCC4)NC(=O)CSC[C@@H](C(=O)N[C@@H](CCC(N)=O)C(N)=O)NC(=O)[C@H](CC(C)C)NC(=O)[C@H](Cc4ccc(O)cc4)NC(=O)[C@H](C(C)C)NC(=O)[C@@H]4CCCN4C(=O)[C@H](C(C)C)NC(=O)[C@@H](CCCNC(=N)N)NC(=O)[C@H](CC(=O)O)NC(=O)[C@@H]4CCCN4C(=O)CN(C)C3=O)cc2)cc1 [Example 244] ({CH2CO}-[Cha][Bip(4'-COOH)][Bip(4'-NHAc)][Sar]PD[dR]VPVYLCQ-NH2; thioether N-13) | 200 to 2000 nM |  |
| CC(C)C[C@@H]1NC(=O)[C@H](CCCNC(=N)N)NC(=O)[C@H](C(C)C)NC(=O)C2CCCN2C(=O)[C@H](C(C)C)NC(=O)[C@@H](CCCNC(=N)NCCc2ccc(O)cc2)NC(=O)[C@H](CC(=O)O)NC(=O)[C@@H]2CCCN2C(=O)CN(C)C(=O)[C@H](Cc2ccc(-c3ccc(NC(=O)c4nn(CC(=O)O)c5ccccc45)cc3)cc2)NC(=O)[C@H](Cc2ccc(-c3ccc(C(=O)O)cc3)cc2)NC(=O)[C@H](CN2CCOCC2)NC(=O)CSC[C@@H](C(=O)NCC(N)=O)NC1=O (some centres unmarked) [Example 404] ({CH2CO}-[Ala(morpholin-4-yl)][Bip(4'-COOH)][Bip(4'-NH)](Indazole3carbonyl(1-CH2COOH))[Sar]PD[X18]V[ξP]VRLCG-NH2; thioether N-13) |  | 50 to 200 nM |
| CC(C)C[C@@H]1NC(=O)[C@H](CCCNC(=N)N)NC(=O)[C@H](C(C)C)NC(=O)[C@@H]2CCCN2C(=O)[C@H](C(C)C)NC(=O)[C@H](CCCNC(=N)N)NC(=O)[C@H](CC(=O)O)NC(=O)[C@@H]2CCCN2C(=O)CN(C)C(=O)[C@H](Cc2ccc(-c3ccccc3)cc2)NC(=O)[C@H](Cc2ccc(-c3ccccc3)cc2)NC(=O)[C@H](Cc2c(F)cc(F)cc2F)NC(=O)CSC[C@@H](C(=O)NCC(N)=O)NC1=O [Example 31] ({CH2CO}-[X59][Bip][Bip][Sar]PDRVPVRLCG-NH2; thioether N-13) | 200 to 2000 nM |  |

More lines, main results first:

| IC50 [1] | Structure (SMILES) | IC50 |
| --- | --- | --- |
| 50 to 200 nM | CC[C@H](C)[C@@H]1NC(=O)[C@@H](CCCNC(=N)N)NC(=O)[C@H](CC(=O)O)NC(=O)[C@H](Cc2cnc[nH]2)NC(=O)CN(C)C(=O)[C@H](Cc2ccc(-c3ccc(C(=O)Nc4cccc(OCC(=O)O)c4)cc3)cc2)NC(=O)[C@H](Cc2ccc(-c3ccccc3)cc2)NC(=O)[C@H](Cc2cccc(C(N)=O)c2)NC(=O)CSC[C@@H](C(=O)NCC(N)=O)NC(=O)[C@H](CC(C)C)NC(=O)[C@H](Cc2cnc[nH]2)NC(=O)[C@H](C(C)C)NC(=O)[C@@H]2CCCN2C1=O [Example 631] ({CH2CO}-[Phe(3-CONH2)][Bip][X56][Sar]HD[dR]IPVHLCG-NH2; thioether N-13) |  |
| 50 to 200 nM | CC(=O)Nc1ccc(-c2ccc(C[C@@H]3NC(=O)[C@H](Cc4ccc(-c5ccc(C(=O)O)cc5)cc4)NC(=O)[C@H](CC4CCCCC4)NC(=O)CSC[C@@H](C(=O)NCC(N)=O)NC(=O)[C@H](CC(C)C)NC(=O)[C@H](Cc4cnc[nH]4)NC(=O)[C@H](C(C)C)NC(=O)[C@@H]4CCCN4C(=O)[C@H](CC(N)=O)NC(=O)[C@@H](CCCNC(=N)N)NC(=O)[C@H](CC(=O)O)NC(=O)[C@H](Cc4ccc(O)cc4)NC(=O)CN(C)C3=O)cc2)cc1 [Example 248] ({CH2CO}-[Cha][Bip(4'-COOH)][Bip(4'-NHAc)][Sar]YD[dR]NPVHLCG-NH2; thioether N-13) |  |
| < 50 nM | CC[C@H](C)[C@@H]1NC(=O)[C@@H](CCCNC(=N)N)NC(=O)[C@H](CC(=O)O)NC(=O)[C@H](Cc2cnc[nH]2)NC(=O)CN(C)C(=O)[C@H](Cc2ccc(-c3ccc(NC(=O)c4cccc(CC(=O)O)c4)cc3)cc2)NC(=O)[C@H](Cc2ccc(-c3ccccc3)cc2)NC(=O)[C@H](C(C)(C)C)NC(=O)CSC[C@@H](C(=O)NCC(N)=O)NC(=O)[C@H](CC(C)C)NC(=O)[C@H](Cc2cnc[nH]2)NC(=O)[C@H](C(C)C)NC(=O)[C@@H]2CCCN2C1=O [Example 496] ({CH2CO}-[Tle][Bip][Bip(4'-NHCO-C6H4-3-CH2COOH)][Sar]HD[dR]IPVHLCG-NH2; thioether N-13) |  |
